{"source": "patent US12599685B2", "about": "“Tumor stroma imaging agent and preparation method thereof” (SHANGHAI UNIVERSITY OF MEDICINE & HEALTH SCIENCES, priority 2020, dated 2026)", "key": {"[1]": {"tested_on": "HT-1080-FAP cell line", "test": "Cell binding experiment of (S)-[18F]-AlF-NOTA-Bn-FAPI-4", "type": "cell-based, human", "conditions": "1 h incubation", "procedure": "(S)—[^18F]—AlF-NOTA-Bn-FAPI-4 was adopted as an experimental group, AlF-FAPI-75+(S)—[^18F]—AlF-NOTA-Bn-FAPI-4 was adopted as a blockage group, and free ^18F^− was adopted as a control group.\nA human fibrosarcoma cell HT-1080-FAP (HT-1080-FAP cell line) transfected by an FAP gene was activated to obtain an HT-1080-FAP cell suspension.\n(§1) The experimental group: 2 mL of the HT-1080-FAP cell suspension was taken and washed three times with frozen PBS. A complete medium including the imaging agent (S)—[^18F]—AlF-NOTA-Bn-FAPI-4 (2.96 MBq, 80 μCi) was added, and the resulting mixture was incubated for 1 h. The cells were washed three times with frozen PBS, and 0.5 mL of NaOH-sodium dodecyl sulfate (SDS) (1M NaOH, 1% SDS) was added for lysis. The resulting cell lysate was finally collected, placed in a marked γ-counting tube, and subjected to γ-counting.\nas §1, with “blockage” for “experimental”, “PBS. A complete medium including the blocker AlF-FAPI-75 was added, and the resulting mixture was incubated for 0.5 h.” for “PBS.”, “NaOH-SDS (1 M” for “NaOH-sodium dodecyl sulfate (SDS) (1M”\nThe control group: 2 mL of the HT-1080-FAP cell suspension was taken and washed three times with frozen PBS. A complete medium including the free ^18F^− (2.96 MBq, 80 μCi) was added, and the resulting mixture was incubated for 1 h. The cells were washed three times with frozen PBS, and 0.5 mL of NaOH-SDS (1 M NaOH, 1% SDS) was added for lysis. The resulting cell lysate was finally collected, placed in a marked γ-counting tube, and subjected to γ-counting. The final volumes of the groups were the same."}, "[2]": {"tested_on": "tumor-bearing mice", "test": "Biodistribution in tumor-bearing mice", "type": "in vivo", "procedure": "Six mice were divided into an experimental group and a blockage group with 3 mice in each group. Mice in the experimental group each were injected with (S)—[^18F]—AlF-NOTA-Bn-FAPI-4 (3.7 MBq, 100 μCi) through a tail vein within 1 min, and 60 min later, the mice each were sacrificed by cutting a carotid artery for bloodletting. Mice in the blockage group each were injected with 100 μg of the blocker AlF-FAPI-75 (1,000 μg/mL) through a tail vein and injected with (S)—[^18F]—AlF-NOTA-Bn-FAPI-4 (3.7 MBq, 100 μCi) through a tail vein 30 min later, and 60 min later, the mice each were sacrificed by cutting a carotid artery for bloodletting. The heart, liver, lung, kidney, spleen, brain, and the like were collected, weighed, and tested for radioactivity. Finally, an (S)—[^18F]—AlF-NOTA-Bn-FAPI-4 radioactivity uptake rate (a percentage of uptake radioactivity per gram of tissue in the injected radioactivity, ID/g) in each of blood and various organs and a radioactivity ratio of a target organ to a non-target organ (T/NT) were calculated at different time points."}, "[3]": {"conditions": "blockage group: 100 μg AlF-FAPI-75 i.v. 30 min before tracer, 1 h after injection"}, "[4]": {"conditions": "experimental group, 1 h after tail vein injection, 3.7 MBq"}, "[5]": {"conditions": "tumor-bearing mice, 1 h after injection"}}, "data": [{"substance": "(S)—[^18F]—AlF-NOTA-Bn-FAPI-4", "values": [{"measurement": "absorption of tumor cells, experimental group relative to blockage group", "setting": "[1]; t=6.713, P<0.05", "value": 3, "unit": "times"}, {"measurement": "absorption of tumor cells, experimental group relative to control group (free 18F-)", "setting": "[1]; t=8.934, P<0.01", "value": 33.31, "unit": "times"}, {"measurement": "Radioactivity count value", "setting": "[1]; HT-1080-FAP cells, 2.96 MBq (80 μCi), no blocker", "value": "5999.98 ± 864.12 γ count value/min"}, {"measurement": "Radioactivity count value", "setting": "[1]; blockage group: blocker AlF-FAPI-75 incubated 0.5 h, then imaging agent 2.96 MBq", "value": "2000.01 ± 113.34 γ count value/min"}, {"measurement": "Distribution, Blood", "setting": "[2]; [3]", "value": "0.13±0.10", "unit": "% ID/g"}, {"measurement": "Distribution, Bone", "setting": "[2]; [3]", "value": "0.06 ± 0.01", "unit": "% ID/g"}, {"measurement": "Distribution, Brain", "setting": "[2]; [3]", "value": "0.03 ± 0.01", "unit": "% ID/g"}, {"measurement": "Distribution, Heart", "setting": "[2]; [3]", "value": "0.08 ± 0.05", "unit": "% ID/g"}, {"measurement": "Distribution, Intestine", "setting": "[2]; [3]", "value": "0.16 ± 0.02", "unit": "% ID/g"}, {"measurement": "Distribution, Kidney", "setting": "[2]; [3]", "value": "0.84±0.21", "unit": "% ID/g"}, {"measurement": "Distribution, Liver", "setting": "[2]; [3]", "value": "0.08 ± 0.04", "unit": "% ID/g"}, {"measurement": "Distribution, Lung", "setting": "[2]; [3]", "value": "0.28 ± 0.19", "unit": "% ID/g"}, {"measurement": "Distribution, Muscle", "setting": "[2]; [3]", "value": "0.09 ± 0.03", "unit": "% ID/g"}, {"measurement": "Distribution, Spleen", "setting": "[2]; [3]", "value": "0.16 ± 0.14", "unit": "% ID/g"}, {"measurement": "Distribution, Tumor", "setting": "[2]; [3]", "value": "0.22±0.05", "unit": "% ID/g"}, {"measurement": "Distribution, Blood", "setting": "[2]; [4]", "value": "0.10±0.04", "unit": "% ID/g"}, {"measurement": "Distribution, Bone", "setting": "[2]; [4]", "value": "0.15 ± 0.03", "unit": "% ID/g"}, {"measurement": "Distribution, Brain", "setting": "[2]; [4]", "value": "0.02 ± 0.01", "unit": "% ID/g"}, {"measurement": "Distribution, Heart", "setting": "[2]; [4]", "value": "0.09 + 0.09 % ID/g"}, {"measurement": "Distribution, Intestine", "setting": "[2]; [4]", "value": "0.19 ± 0.06", "unit": "% ID/g"}, {"measurement": "Distribution, Kidney", "setting": "[2]; [4]", "value": "0.94±0.20", "unit": "% ID/g"}, {"measurement": "Distribution, Liver", "setting": "[2]; [4]", "value": "0.07 ± 0.05", "unit": "% ID/g"}, {"measurement": "Distribution, Lung", "setting": "[2]; [4]", "value": "0.16 ± 0.08", "unit": "% ID/g"}, {"measurement": "Distribution, Muscle", "setting": "[2]; [4]", "value": "0.16 ± 0.05", "unit": "% ID/g"}, {"measurement": "Distribution, Spleen", "setting": "[2]; [4]", "value": "0.10 ± 0.01", "unit": "% ID/g"}, {"measurement": "Distribution, Tumor", "setting": "[2]; [4]", "value": "1.12±0.06", "unit": "% ID/g"}, {"measurement": "clearance in the blood", "setting": "[2]; [5]", "value": "quickly cleared in the blood"}, {"measurement": "route of excretion", "setting": "[2]; [5]", "value": "mainly excreted by the kidney"}]}]}
